Test results: patent US20230165252A1, “ACTIVE COMPOUND COMBINATIONS” (Bayer Aktiengesellschaft, priority 2020, published 2023)
Where “and” joins values, the source holds several entries; their conditions need not be identical. Equal entries are not always repeated. Where two headings read alike, the source gives them in different places.

Key:
Type in all cases: cell-based
Cercospora beticola = test: in vitro-Test with Cercospora beticola (microtiter growth inhibition); conditions: alone
Experimental: (§1) The degree of efficacy expressed in % is denoted: 0% means an efficacy, which corresponds to that of the control, while an efficacy of 100% means that no disease is observed.
(§2) If the actual fungicidal activity exceeds the calculated value, then the activity of the combination is super-additive, i.e. a synergistic effect exists. In this case, the efficacy, which was actually observed, must be greater than the value for the expected efficacy (E), that was calculated from the abovementioned formula.
(§3) Example: In Vitro-Test with Fungal Microorganisms
(§4) Wells of 96-well microtiter plates are filled with 10 μl of a preparation of test compound or compound combination in methanol+emulsifier alkylaryl-polyglycol-ether. Thereafter, the solvent is evaporated in a hood. At the next step, 100 μl of liquid potato dextrose medium is given into each well, that has been amended with an appropriate concentration of spores or mycelium suspension of the test fungus.
(§5) With the aid of a photometer, the extinction in all wells is measured at the wavelength of 620 nm.
(§6) The microtiter plates are incubated at 20° C. and 85% relative humidity. The inhibition of growth is determined again photometrically 3-5 days after the application. Efficacy is calculated in relation to the untreated control, 0% efficacy means fungal growth as high as in untreated control while 100% efficacy means no fungal growth is measured.

Diaporthe citri = test: in vitro-Test with Diaporthe citri (microtiter growth inhibition)
Experimental: as §2, §3, §4, §5, §6

Cordana musae = test: in vitro-Test with Cordana musae (microtiter growth inhibition); conditions: single substance
Experimental: as §1, §2, §3, §4, §5, §6

Fusarium culmorum = test: in vitro-Test with Fusarium culmorum (microtiter growth inhibition); conditions: Fusarium culmorum, read-out: Efficacy
Experimental: as §1, §2, §3, §4, §5, §6

Alternaria alternate = test: in vitro-Test with Alternaria alternate (microtiter growth inhibition)
Experimental: as §1, §2, §3, §4, §5, §6

[1] = tested on: Ustilago segetum var. avenae; test: in vitro-Test with Ustilago segetum var. avenae (microtiter growth inhibition); conditions: single compound, 0.08 ppm; read-out: Efficacy %
Experimental: as §1, §2, §3, §4, §5, §6

[2] = Cercospora beticola, read-out: Efficacy %
[3] = Diaporthe citri, applied alone, read-out: Efficacy
[4] = Diaporthe citri, read-out: Efficacy

For `Fc1ccc(Oc2ccnc3cc(Cl)cc(Cl)c23)cc1` [Compound 13.005, quinoxyfen], the inhibition of growth at 0.08 ppm (Cercospora beticola; [2]) was 0%, the inhibition of growth at 0.4 ppm (Cercospora beticola; Cercospora beticola, 0.4 ppm, read-out: Efficacy %) was 2% and the inhibition of growth at 10 ppm (Cercospora beticola; [2]) was 20%. The inhibition of growth at 0.4 ppm (Diaporthe citri; [3]) was 0%, the inhibition of growth at 10 ppm (Diaporthe citri; [3]) was 54% and the inhibition of growth at 2 ppm (Cordana musae; Neocordana musae, 2 ppm, read-out: Efficacy) was 1%. The inhibition of growth at 10 ppm (Cordana musae; Neocordana musae, 10 ppm, read-out: Efficacy) was 15%.
With `COc1cc(C)c(C(=O)c2c(OC)ccc(Br)c2C)c(OC)c1OC` [Compound 15.016, metrafenone] the inhibition of growth at 0.8 ppm (Fusarium culmorum) was 0%, the inhibition of growth at 4 ppm (Fusarium culmorum; 4 ppm) was 0% and the inhibition of growth at 20 ppm (Fusarium culmorum) was 0%. For the same compound, the inhibition of growth at 0.8 ppm (Cordana musae; Neocordana musae, 0.8 ppm, read-out: Efficacy) was 0% and the inhibition of growth at 20 ppm (Cordana musae; Neocordana musae, 20 ppm, read-out: Efficacy) was 22%.
For `O=C1C2CC=CCC2C(=O)N1SC(Cl)(Cl)Cl` (stereo not drawn) [captan], the inhibition of growth at 4 ppm (Cercospora beticola; Cercospora beticola, 4 ppm, read-out: Efficacy %) was 73%, the inhibition of growth at 0.8 ppm (Fusarium culmorum) was 2% and the inhibition of growth at 20 ppm (Fusarium culmorum) was 5%. The inhibition of growth at 20 ppm (Alternaria alternate; Alternaria, 20 ppm, alone, read-out: Efficacy %) was 83%, the inhibition of growth at 0.8 ppm (Alternaria alternate; Alternaria, applied alone, 0.8 ppm, read-out: Efficacy) was 10% and the inhibition of growth at 20 ppm (Alternaria alternate; Alternaria, applied alone, 20 ppm, read-out: Efficacy) was 100%. The Efficacy (Alternaria alternate; applied alone, 4 ppm) was 100%, the inhibition of growth at 4 ppm (Cordana musae; Neocordana musae, 4 ppm, read-out: Efficacy) was 2% and the Efficacy (Cordana musae; 0.8 ppm) was 0%.
In the case of `O=C1c2ccccc2C(=O)N1SC(Cl)(Cl)Cl` [folpet], the inhibition of growth at 0.08 ppm (Cercospora beticola; [2]) is reported as 7%, the inhibition of growth at 2 ppm (Cercospora beticola; Cercospora beticola, 2 ppm, read-out: Efficacy %) is reported as 100% and the inhibition of growth at 10 ppm (Cercospora beticola; [2]) is reported as 100%. For the same compound, the inhibition of growth at 0.4 ppm (Fusarium culmorum; 0.4 ppm) was 0%, the inhibition of growth at 2 ppm (Fusarium culmorum; 2 ppm) was 62% and the inhibition of growth at 10 ppm (Fusarium culmorum; 10 ppm) was 100%. The inhibition of growth at 0.08 ppm (Diaporthe citri; [4]) was 20%, the inhibition of growth at 0.4 ppm (Diaporthe citri; [4]) was 33% and the inhibition of growth at 2 ppm (Diaporthe citri; Diaporthe citri, 2 ppm, read-out: Efficacy) was 98%. For the same compound, the inhibition of growth at 0.08 ppm (Diaporthe citri; [3]) was 0%, the inhibition of growth at 0.4 ppm (Diaporthe citri; [3]) was 53% and the inhibition of growth at 10 ppm (Diaporthe citri; [3]) was 99%. It also gave an inhibition of growth at 0.4 ppm (Alternaria alternate; Alternaria, alone, read-out: Efficacy %) of 0%, an inhibition of growth at 0.08 ppm (Alternaria alternate; Alternaria, applied alone, 0.08 ppm, read-out: Efficacy) of 5% and an inhibition of growth at 0.4 ppm (Alternaria alternate; Alternaria, applied alone, read-out: Efficacy) of 1%. It also gave an inhibition of growth at 2 ppm (Alternaria alternate; Alternaria, applied alone, 2 ppm, read-out: Efficacy) of 100%, an inhibition of growth at 10 ppm (Alternaria alternate; Alternaria, applied alone, 10 ppm, read-out: Efficacy) of 100% and an inhibition of growth at 0.08 ppm [1] of 12%.
`CCO[PH](=O)[O-].CCO[PH](=O)[O-].CCO[PH](=O)[O-].[Al+3]` [fosetylaluminium] showed an Efficacy (Diaporthe citri; applied alone, 0.8 ppm) of 22%, an Efficacy (Diaporthe citri; applied alone, 4 ppm) of 31% and an Efficacy (Diaporthe citri; applied alone, 20 ppm) of 4%. It also gave an Efficacy (Diaporthe citri; applied alone, 100 ppm) of 0%, an Efficacy % (Alternaria alternate; 4 ppm, alone) of 8% and an Efficacy % (Alternaria alternate; 20 ppm, alone) of 27%. It also gave an Efficacy % (Alternaria alternate; 100 ppm, alone) of 37%, an Efficacy (Cordana musae; 0.8 ppm) of 0% and an Efficacy (Cordana musae; 4 ppm) of 12%. It also gave an Efficacy (Cordana musae; 20 ppm) of 0%.
Compound `N#Cc1ccccc1NC(=O)c1snc(Cl)c1Cl` [isotianil] has an Efficacy % (Cercospora beticola; 0.8 ppm) of 17%, an Efficacy % (Cercospora beticola; 4 ppm) of 17% and an Efficacy % (Cercospora beticola; 20 ppm) of 12%. It also gave an Efficacy % (Cercospora beticola; 100 ppm) of 29%, an Efficacy (Diaporthe citri; 0.8 ppm) of 0% and an Efficacy (Diaporthe citri; 4 ppm) of 24%. For the same compound, the Efficacy (Diaporthe citri; 20 ppm) was 0%, the Efficacy (Diaporthe citri; 100 ppm) was 0% and the Efficacy (Diaporthe citri; applied alone, 0.8 ppm) was 12%. For the same compound, the Efficacy (Diaporthe citri; applied alone, 4 ppm) was 19% and 23%, the Efficacy (Diaporthe citri; applied alone, 20 ppm) was 5% and 14% and the Efficacy (Diaporthe citri; applied alone, 100 ppm) was 5%. For the same compound, the Efficacy % (Alternaria alternate; 4 ppm, alone) was 0%, the Efficacy % (Alternaria alternate; 20 ppm, alone) was 7% and the Efficacy % (Alternaria alternate; 100 ppm, alone) was 0%. For the same compound, the Efficacy (Cordana musae; 20 ppm) was 3% and the Efficacy (Cordana musae; 100 ppm) was 16%.
